Experimental data taken from patent US20020082213A1 (priority 1996, published 2002).

Columns and labels:
[1] = test system: female albino mice (Ibm: MORO); assay: Operant conflict test for anxiolytic effect; type: in vivo; settings: 10 mg/kg oral, 30 minutes prior to testing
LC132 receptors = settings: cited from earlier work

Molecule | punished lever-pressing [1] | unpunished responding [1] | inhibition of cyclic AMP formation (LC132 receptors)
CN1C(=O)CN=C(c2ccccc2)c2cc(Cl)ccc21 [diazepam] | enhanced punished lever-pressing | some reduction of unpunished responding | –
dynorphin A | – | – | weakly inhibited
